The values below come from PMC3823594, “Conformational Changes Underlying Pore Dilation in the Cytoplasmic Domain of Mammalian Inward Rectifier K^+ Channels” (PLoS ONE, 2013).

Structures are written as SMILES.

The subject of the assay is Kir3.2 E236R. The assay can be described thus: Two-electrode voltage clamp, ACh-dependent (m2R-dependent) K+ current activation. Type of assay: cell-based, mouse. Particulars: Kir3.2 E236R with m2R in Xenopus oocytes; various concentrations of ACh; end of test pulse to −120 mV. From the text:
The mouse Kir3.2d isoform was subjected to functional analyses. The amino acid numbers correspond to the longest mouse Kir3.2 isoform. Point mutations were introduced using the QuikChange site-directed mutagenesis kit (Stratagene, La Jolla, CA), and the presence of the mutations was confirmed by direct DNA sequencing. The care of Xenopus laevis was in accordance with the guideline of the Institute of Experimental Animal Sciences, Osaka University. The protocol was approved by the Animal Experiment Committee of Osaka University. The frogs were deeply anesthetized by immersing in 0.2% tricaine methanesulfonate for 20 min at 18°C. […] The currents were recorded in the absence or presence of various concentrations of acetylcholine (ACh). […] The data are expressed as mean values ± standard error of the mean. For the quantitative estimation of ACh-dependent current responses of the wild-type (WT) and mutant channels, the current amplitudes at the end of test pulses at each ACh concentration ([ACh]) were fitted using the following equation: […]
Figure 6 Introduction of reverse charge at position 236 of Kir3.2. […] Typical current traces of the E236R mutant recorded in the presence of various concentrations of ACh are shown. […] The current amplitudes at the end of the test pulse were normalized to that recorded at -100 mV. […]
In general terms: Two-electrode voltage clamp holds a large cell at a set potential and records current.

For `CC(=O)OCC[N+](C)(C)C` [ACh, acetylcholine], the “Sensitivity of whole-cell K+ current to m2R-stimulation” value is reported as “insensitive”.
